Marks after values point to notes of the source that are not given here.
Key:
Type in all cases: in vivo
[1] = system: Puccinia recondita f. sp. tritici; assay: Test A: wheat leaf rust, preventive spray on wheat seedlings, visual disease rating
Source text: (§1) General protocol for preparing test suspensions for Tests A-E: the test compounds were first dissolved in acetone in an amount equal to 3% of the final volume and then suspended at the desired concentration (in ppm) in acetone and purified water (50/50 mix by volume) containing 250 ppm of the surfactant Trem® 014 (polyhydric alcohol esters). The resulting test suspensions were then used in Tests A-E. Spraying a 200 ppm test suspension to the point of run-off on the test plants was the equivalent of a rate of 800 g/ha.
The test suspension was sprayed to the point of run-off on wheat seedlings. The following day the seedlings were inoculated with a spore suspension of Puccinia recondita f. sp. tritici (the causal agent of wheat leaf rust) and incubated in a saturated atmosphere at 20° C. for 24 h, and then moved to a growth chamber at 20° C. for 7 days, after which time visual disease ratings were made.
(§2) Results for Tests A-E are given in Table A. In the Table, a rating of 100 indicates 100% disease control and a rating of 0 indicates no disease control (relative to the controls). A dash (-) indicates no test results. All results are for 200 ppm except where followed by an asterisk “*” which indicates a 250 ppm test suspension was used or a double asterisk “**” which indicates a 50 ppm test suspension was used.

[2] = system: Septoria tritici; assay: Test B: wheat leaf blotch, preventive spray on wheat seedlings, visual disease rating
Source text: as §1
(§3) The test suspension was sprayed to the point of run-off on wheat seedlings. The following day the seedlings were inoculated with a spore suspension of Septoria tritici (the causal agent of wheat leaf blotch) and incubated in a saturated atmosphere at 24° C. for 48 h, and then moved to a growth chamber at 20° C. for 19 days, after which time visual disease ratings were made.
as §2

[3] = system: Blumeria graminis f sp. tritici; assay: Test D: wheat powdery mildew, preventive spray on wheat seedlings, visual disease rating
Source text: as §1
The test suspension was sprayed to the point of run-off on wheat seedlings. The following day the seedlings were inoculated with a spore dust of Blumeria graminis f sp. tritici, (also known as Erysiphe graminis f sp. tritici, the causal agent of wheat powdery mildew) and incubated in a growth chamber at 20° C. for 8 days, after which time visual disease ratings were made.
as §2

[4] = system: Botrytis cinerea; assay: Test C: tomato Botrytis, preventive spray on tomato seedlings, visual disease rating
Source text: as §1
as §3, with “tomato” for “wheat”, “Botrytis cinerea” for “Septoria tritici”, “tomato Botrytis)” for “wheat leaf blotch)”, “20°” for “24°”, “24°” for “20°”, “3” for “19”
as §2

[5] = 200 ppm test suspension, 100 = 100% disease control, 0 = no control

`Cn1nc(Br)c(C2OCCCO2)c1C(O)c1ccc(F)cc1Br` (stereo not drawn) [Compound 9] was tested. Which “Test A disease control rating” value ([1]; 250 ppm test suspension (*)) did it give?
The value was 0* %.

What about the “Test B disease control rating” value ([2]; 250 ppm test suspension (*)) of the same compound?
The value was 0* %.

And the “Test D disease control rating” value ([3]; 250 ppm test suspension (*))?
The value was 64* %.

What about the “Test C disease control rating” value ([4]; 250 ppm test suspension (*)) of the same compound?
Its value is 0* %.

Which results are given for `Cc1nn(C)c(Oc2ccc(F)cc2Cl)c1C1=NOC(C)(C)C1` [Compound 53]?
Test A disease control rating ([1]; 250 ppm test suspension (*)): 0* %; Test B disease control rating ([2]; 250 ppm test suspension (*)): 2* %; Test D disease control rating ([3]; 250 ppm test suspension (*)): 90* %; Test C disease control rating ([4]; 250 ppm test suspension (*)): 0* %

What does the source list for `Cc1nn(C)c(Oc2ccc(F)cc2Cl)c1C=NO` [Compound 42]?
Test A disease control rating ([1]; 250 ppm test suspension (*)): 9* %; Test B disease control rating ([2]; 250 ppm test suspension (*)): 0* %; Test D disease control rating ([3]; 250 ppm test suspension (*)): 81* %; Test C disease control rating ([4]; 250 ppm test suspension (*)): 7* %

`CC(=NOC(C)C)c1c(C)nn(C)c1Nc1ccc(F)cc1Cl` [Compound 28] was tested. Which “Test A disease control rating” value ([1]; 250 ppm test suspension (*)) did it give?
The value was 32* %.

What about the “Test B disease control rating” value ([2]; 250 ppm test suspension (*)) of the same compound?
Its value is 24* %.

What about the “Test D disease control rating” value ([3]; 250 ppm test suspension (*)) of the same compound?
Its value is 0* %.

And the “Test C disease control rating” value ([4]; 250 ppm test suspension (*))?
Its value is 0* %.

With `CC(=CC(C)C)c1c(C)nn(C)c1Nc1ccc(F)cc1Cl` [Compound 31] as the compound, how does the “Test A disease control rating” value ([1]; 250 ppm test suspension (*)) read?
The value was 55* %.

What about the “Test B disease control rating” value ([2]; 250 ppm test suspension (*)) of the same compound?
Its value is 6* %.

What about the “Test D disease control rating” value ([3]; 250 ppm test suspension (*)) of the same compound?
Its value is 48* %.

What about the “Test C disease control rating” value ([4]; 250 ppm test suspension (*)) of the same compound?
Its value is 0* %.

What does the source list for `Cc1nn(C)c(Nc2ccc(F)cc2Cl)c1C1CCOCC1` [Compound 56]?
Test A disease control rating ([1]; 250 ppm test suspension (*)): 55* %; Test B disease control rating ([2]; 250 ppm test suspension (*)): 100* %; Test D disease control rating ([3]; 250 ppm test suspension (*)): 99* %; Test C disease control rating ([4]; 250 ppm test suspension (*)): 100* %

How did the “Test A disease control rating” value ([1]; 250 ppm test suspension (*)) turn out when `Cc1nn(C)c(Nc2ccc(F)cc2F)c1C1=CCC(C#N)CC1` (stereo not drawn) [Compound 18] was run?
The value was 19* %.

What about the “Test B disease control rating” value ([2]; 250 ppm test suspension (*)) of the same compound?
The value was 79* %.

And the “Test D disease control rating” value ([3]; 250 ppm test suspension (*))?
Its value is 0* %.

And the “Test C disease control rating” value ([4]; 250 ppm test suspension (*))?
The value was 73* %.

How did the “Test A disease control rating” value ([1]; 250 ppm test suspension (*)) turn out when `Cc1nn(C)c(Nc2ccc(F)cc2Cl)c1C1CCC(C)(C)CC1` [Compound 62] was run?
Its value is 68* %.

And the “Test B disease control rating” value ([2]; 250 ppm test suspension (*))?
The value was 9* %.

What about the “Test D disease control rating” value ([3]; 250 ppm test suspension (*)) of the same compound?
Its value is 96* %.

And the “Test C disease control rating” value ([4]; 250 ppm test suspension (*))?
The value was 0* %.

Which results are given for `Cc1nn(C)c(Oc2ccc(F)cc2Cl)c1C1=NOC(C#N)C1` (stereo not drawn) [Compound 55]?
Test A disease control rating ([1]; 250 ppm test suspension (*)): 0* %; Test B disease control rating ([2]; 250 ppm test suspension (*)): 0* %; Test D disease control rating ([3]; 250 ppm test suspension (*)): 73* %; Test C disease control rating ([4]; 250 ppm test suspension (*)): 0* %

Which “Test A disease control rating” value ([1]; 250 ppm test suspension (*)) does the source give for `CCC(OC)c1c(C)nn(C)c1Oc1c(F)cccc1F` (stereo not drawn) [Compound 25] here?
The value was 99* %.

And the “Test B disease control rating” value ([2]; 250 ppm test suspension (*))?
The value was 6* %.

And the “Test D disease control rating” value ([3]; 250 ppm test suspension (*))?
The value was 0* %.

What about the “Test C disease control rating” value ([4]; 250 ppm test suspension (*)) of the same compound?
Its value is 0* %.

For `Cc1nn(C)c(Nc2ccc(F)cc2)c1C1CCOCC1` [Compound 57], which “Test A disease control rating” value ([1]; 250 ppm test suspension (*)) is on record?
Its value is 0* %.

And the “Test B disease control rating” value ([2]; 250 ppm test suspension (*))?
Its value is 44* %.

And the “Test D disease control rating” value ([3]; 250 ppm test suspension (*))?
The value was 89* %.

And the “Test C disease control rating” value ([4]; 250 ppm test suspension (*))?
The value was 0* %.

For `CON=C(C)c1c(C)nn(C)c1N(C)c1ccc(F)cc1Cl` [Compound 33], which “Test A disease control rating” value ([1]; 50 ppm test suspension (**)) is on record?
Its value is 17** %.

What about the “Test B disease control rating” value ([2]; 50 ppm test suspension (**)) of the same compound?
The value was 0** %.

What about the “Test D disease control rating” value ([3]; 50 ppm test suspension (**)) of the same compound?
Its value is 0** %.

And the “Test C disease control rating” value ([4]; 50 ppm test suspension (**))?
The value was 7** %.

Which “Test A disease control rating” value [1, 5] does the source give for `Cc1nn(C)c(Nc2c(F)cc(Cl)cc2F)c1C1=CCCCC1C` (stereo not drawn) [Compound 22] here?
Its value is 68%.

What about the “Test D disease control rating” value ([3]; 200 ppm test suspension) of the same compound?
Its value is 56%.

And the “Test C disease control rating” value ([4]; 200 ppm test suspension)?
Its value is 99%.

With `CCCCC(CC)c1c(C)nn(C)c1Nc1ccc(F)cc1Cl` (stereo not drawn) [Compound 3] as the compound, how does the “Test A disease control rating” value [1, 5] read?
The value was 9%.

And the “Test B disease control rating” value ([2]; 200 ppm test suspension)?
Its value is 0%.

And the “Test D disease control rating” value ([3]; 200 ppm test suspension)?
Its value is 0%.

What does the source list for `Cc1nn(C)c(C(O)c2ccc(F)cc2F)c1C1CCCCC1` (stereo not drawn) [Compound 12, 4-cyclohexyl-α-(2,4-difluorophenyl)-1,3-dimethyl-1H-pyrazole-5-methanol]?
Test A disease control rating ([1]; 250 ppm test suspension (*)): 94* %; Test B disease control rating ([2]; 250 ppm test suspension (*)): 100* %; Test D disease control rating ([3]; 250 ppm test suspension (*)): 97* %; Test C disease control rating ([4]; 250 ppm test suspension (*)): 61* %

With `CC1=NOC(c2c(C)nn(C)c2Oc2ccc(F)cc2Cl)C1` (stereo not drawn) [Compound 40] as the compound, how does the “Test A disease control rating” value ([1]; 250 ppm test suspension (*)) read?
The value was 30* %.

What about the “Test B disease control rating” value ([2]; 250 ppm test suspension (*)) of the same compound?
The value was 36* %.

And the “Test D disease control rating” value ([3]; 250 ppm test suspension (*))?
The value was 81* %.

And the “Test C disease control rating” value ([4]; 250 ppm test suspension (*))?
Its value is 33* %.

What does the source list for `CC(=O)c1c(C)nn(C)c1Nc1ccc(F)cc1Cl` [Compound 32]?
Test A disease control rating ([1]; 250 ppm test suspension (*)): 19* %; Test D disease control rating ([3]; 250 ppm test suspension (*)): 0* %; Test C disease control rating ([4]; 250 ppm test suspension (*)): 56* %

What does the source list for `Cc1nn(C)c(Nc2ccc(F)cc2F)c1C1CCC(C)(C)CC1` [Compound 19]?
Test A disease control rating ([1]; 250 ppm test suspension (*)): 0* %; Test B disease control rating ([2]; 250 ppm test suspension (*)): 1* %; Test D disease control rating ([3]; 250 ppm test suspension (*)): 96* %; Test C disease control rating ([4]; 250 ppm test suspension (*)): 0* %

Source: patent US20180042234A1, “FUNGICIDAL PYRAZOLES” (E I DU PONT DE NEMOURS AND COMPANY, priority 2015, published 2018)
